Experimental findings from PubChem BioAssay (NCI) are described below.

Common to all, as to experiment: NCI-60 cell line screen, 48 h
For test [1], the system named is CAKI-1 renal.
The subject of test [2] is EKVX NSCLC.
Test [3] deals with NCI-H23 lung.
The subject of test [4] is NCI-H460 lung.
Test [5] has as its system NCI-H522 lung.
The test system of test [6] is SF-539 CNS.
The subject of test [7] is SK-MEL-2 melanoma.
In test [8] the test system is TK-10 renal.
Test [9] concerns M14 melanoma.
In test [10] the test system is NCI/ADR-RES ovarian.

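Grown in 96-well plates, cells were treated for 48 hours with each compound at five concentrations. Insufficient inhibition: endpoint recorded as highest concentration tested. Abbreviation: GI50, concentration required for 50% inhibition of growth. TGI denotes the concentration required for complete inhibition of growth.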

Regarding `O=C(O)C(CS)NCc1c2ccccc2nc2ccccc12` (centres undefined), the TGI in test [1] was more than 100 µM; in test [2] it was more than 100 µM; in test [3], more than 100 µM; in test [4] it was more than 100 µM; in test [5] it was 88 µM; in test [6], more than 100 µM. The TGI in test [7] and in test [8] was more than 100 µM throughout.

As to `COc1ccc(COC2CC(OC)OC(C)C2OC(=O)c2ccccc2)cc1` (centres undefined), the TGI is more than 100 µM in [1]; more than 100 µM in test [2]; more than 100 µM in test [9]; more than 92.6 µM in [3]; more than 100 µM in [4]; more than 93.5 µM in test [5]. Moreover, the TGI in test [6], in [7] and in test [8] was more than 100 µM throughout.

`CCOC(=O)c1cc2c(n1Cc1cc(OC)c(OC)c(OC)c1)-c1oncc1CCC2`: the GI50 in test [1] was 0.105 µM; in test [3], 0.388 µM; in test [4], 0.284 µM; in test [5], 0.0208 µM; in test [10], 0.0614 µM; in test [7], 0.0841 µM. In addition, in test [8], the GI50 was 64.9 µM. Further, the TGI was more than 27.8 µM in [1]; more than 43.2 µM in test [3]; 13.7 µM in test [4]; 0.073 µM in test [5]; more than 100 µM in test [10]; 0.545 µM in test [7]. This compound returned a TGI in test [8] of more than 100 µM.

Turning to `O=C1/C(=N\O)S(=O)(=O)c2ccccc21`, the TGI in test [1], in [9], in test [4], in test [5], in [6] and in test [7] was more than 100 µM throughout. This compound showed a TGI in test [8] of more than 100 µM.

Take `CC(=O)[CH-]C(=O)c1ccccc1.CC(=O)[CH-]C(=O)c1ccccc1.CC(=O)[CH-]C(=O)c1ccccc1.[In+3]`: the GI50 was 99.7 µM in test [1]; 26.8 µM in test [9]; 30.9 µM in test [3]; 16.6 µM in test [4]; 21.8 µM in [5]; 21.6 µM in [6]. The GI50 in test [7] was 13 µM; in test [8], more than 100 µM. Further, the TGI in [1] was more than 100 µM; in test [9], more than 100 µM; in test [3], more than 100 µM; in [4], more than 100 µM; in test [5], 59.8 µM; in [6], more than 100 µM. For the same compound, the TGI in [7] is 34.2 µM; in test [8], more than 100 µM.

In the case of `C[C@]12CCC(=O)CC1CCCC2=O` (some centres undefined), the TGI in test [1], in [2], in test [9], in test [3], in [4] and in test [5] was more than 100 µM throughout. Further, the TGI in [6], in [7] and in test [8] was more than 100 µM each time.

With `COc1ccc(C(=O)/C=C/c2cccc(Nc3ccnc4cc(Cl)ccc34)c2)cc1`, the GI50 is 1.75 µM in [2]; 1.6 µM in test [9]; 1.49 µM in [3]; 2.23 µM in [4]; 1.88 µM in test [5]; 1.7 µM in test [6]. Besides, in [8], the GI50 was 1.64 µM. Moreover, the TGI in test [2] is more than 100 µM; in [9], more than 100 µM; in [3], more than 100 µM; in test [4], more than 100 µM; in test [5], more than 100 µM; in [6] it was 4.3 µM. For the same compound, the TGI in test [8] came to 4.59 µM.

With `O=C(NC(=Nc1ccccc1)SCCSC(=Nc1ccccc1)NC(=O)c1cccs1)c1cccs1`, the TGI is more than 100 µM in test [1]; more than 100 µM in test [2]; more than 100 µM in test [9]; more than 100 µM in [3]; more than 100 µM in test [4]; 63.6 µM in test [5]. Also, the TGI in [6], in test [7] and in [8] was more than 100 µM in each case.

Regarding `CC1(C)CC2CC(CC(C)(C)C2=O)C1=O`, the TGI in test [1], in test [2], in [9], in [3], in test [4] and in test [6] was more than 100 µM each time. For the same compound, the TGI in test [7] and in test [8] was more than 100 µM in each case.

On to `COc1cccc(NC(=O)CC(=O)N2N=C(N3c4ccccc4Sc4ccccc43)CC2c2ccccc2)c1` (centres undefined), for which the TGI in [1], in test [2], in test [9], in [3], in test [4] and in test [6] was more than 100 µM in each case. The compound also returned a TGI in [8] of more than 100 µM.

As for `CC(C)CCNCC(O)Cn1c2ccccc2c2ccccc21` (centres undefined), the GI50 in test [1] was 14.3 µM; in [9] it was 2.73 µM; in [3] it was 16.4 µM; in test [4], 3.64 µM; in test [5] it was 13.6 µM; in test [10] it was 14.2 µM. The GI50 in test [6] is 15.8 µM; in test [8], 14 µM. The TGI in [1] came to 29.8 µM; in test [9] it was 7.5 µM; in test [3] it was 31.9 µM; in test [4] it was 13.7 µM; in test [5] it was 27.7 µM; in [10] it was 30.7 µM. In addition, the values for the TGI in test [6] and in [8] were 30.2 µM and 27.6 µM, respectively.

`COC(=O)c1cc2ccccc2c2c3c(ccc12)OCO3`: the GI50 in [1] is 278 µM; in [9] it was 474 µM; in [3], 161 µM; in test [4], 290 µM; in [10], 54.4 µM; in test [6] it was 44.4 µM. In addition, the GI50 is 49.9 µM in [7] and 43.8 µM in test [8]. The TGI is more than 1000 µM in test [1]; more than 1000 µM in test [9]; more than 1000 µM in test [3]; more than 1000 µM in [4]; more than 1000 µM in test [10]; 394 µM in test [6]. Also, the figures for the TGI in test [7] and in [8] were 334 µM and 325 µM, respectively.

`CCOC(=O)/C(O)=C(/C(=O)OC)c1ccc(Cl)cc1`: the TGI in test [1], in test [2], in test [9], in [3], in test [4] and in test [6] was more than 100 µM each time. Also, the TGI in test [7] and in test [8] was more than 100 µM throughout.

Take `CN(C)C(=O)c1ccc([N+](=O)[O-])cc1`: the TGI in test [1], in [2], in test [9], in [3], in [4] and in [5] was more than 100 µM throughout. Also, the TGI in test [6], in [7] and in [8] was more than 100 µM each time.

For `Cn1cc(-c2csc(-c3cn(CCCN4CCCCC4)c4ccccc34)n2)c2cccnc21`, the GI50 in test [2] was 16.3 µM; in [9], 1.82 µM; in [3], 1.82 µM; in test [4] it was 2.04 µM; in test [5] it was 17.8 µM; in [6] it was 1.62 µM. Further, the GI50 in test [7] was 18.8 µM; in test [8], 1.6 µM. In addition, the TGI in test [2] came to 34.5 µM; in test [9] it was 3.38 µM; in [3] it was 3.62 µM; in test [4], 4 µM; in test [5] it was 41 µM; in test [6], 3.08 µM. Moreover, the TGI was 38.5 µM in test [7] and 2.96 µM in test [8].

On to `Cc1[nH]c2ccc(F)cc2c1-c1nc2c3cccnc3c3ncccc3c2[nH]1`, for which the GI50 in [1] was 0.358 µM; in test [2] it was 0.278 µM; in [9], 0.278 µM; in [3], 0.418 µM; in [4], 0.41 µM; in [7], 0.51 µM. In [8], the GI50 is 0.46 µM. For the same compound, the TGI in test [1], in test [2], in test [9], in test [3], in test [4] and in test [7] was more than 100 µM each time. In addition, in test [8], the TGI is more than 100 µM.

Turning to `CN(C)c1ccc(C(=NO)c2ccc(N(C)C)cc2)cc1`, the GI50 in [1] is 1.95 µM; in [2], 3.28 µM; in test [3], 5.42 µM; in [4], 3.23 µM; in test [5], 1.08 µM; in [6], 3.38 µM. In addition, the GI50 was 3.57 µM in [7] and 7.47 µM in test [8]. For the same compound, the TGI in [1] is 7.86 µM; in [2] it was more than 100 µM; in test [3], more than 100 µM; in test [4], more than 100 µM; in [5], more than 100 µM; in test [6] it was more than 100 µM. The results for the TGI in test [7] and in test [8] were more than 100 µM and 98.6 µM, respectively.

In the case of `COc1cnc2c(c1)C(=O)c1c-2n(CCCNC2=NCCS2)c(=O)c2cc(Cl)ccc12`, the GI50 was 0.0444 µM in test [1]; 1.64 µM in test [2]; 0.0829 µM in [9]; 0.3 µM in test [3]; 0.0299 µM in [4]; 0.475 µM in test [6]. For the same compound, the GI50 in test [7] is 18.3 µM; in test [8], 1.66 µM. The TGI in test [1] was 1.6 µM; in [2], 3.39 µM; in [9] it was 1.81 µM; in test [3] it was 2.11 µM; in test [4], 1.16 µM; in [6] it was 1.8 µM. For the same compound, the TGI was 34.3 µM in [7] and 3.09 µM in test [8].

With `CNC(=O)OCc1c2ccncc2c(C)c2c1[nH]c1ccc(OC)cc12`, the TGI is more than 100 µM in [1]; more than 100 µM in test [2]; 1.81 µM in test [9]; 1.3 µM in test [4]; 1.13 µM in [5]; 0.719 µM in [6]. Besides, the values for the TGI in test [7] and in [8] were 0.509 µM and more than 100 µM, respectively.

Take `CCCN(CCC)C(=O)C(=O)c1c(N)[nH]n(-c2ccccc2)c1=O`: the TGI in [1], in test [2], in test [9], in test [3], in test [4] and in test [5] was more than 100 µM throughout. The TGI in [6], in test [7] and in test [8] was more than 100 µM in each case.

For `O=C(N/C(=C\c1ccc(/C=C(\NC(=O)c2ccccc2)c2nc3ccccc3[nH]2)cc1)c1nc2ccccc2[nH]1)c1ccccc1`, the TGI in test [1], in test [2], in test [9], in [3], in test [4] and in test [5] was more than 100 µM throughout. The TGI in test [6], in test [7] and in test [8] was more than 100 µM throughout.

For the compound `O=C(Nc1ccc(Oc2cccc(F)c2)c(Cl)c1)c1cnccn1`, the GI50 in test [1] is 2.13 µM; in [2] it was 2.67 µM; in [9], 0.78 µM; in [3], 3 µM; in test [4] it was 1.79 µM; in test [5], 1.19 µM. Moreover, the GI50 was 1.35 µM in test [6], 2.15 µM in test [7] and 3.75 µM in test [8]. The TGI in test [1], in [2], in test [9], in test [3], in test [4] and in test [5] was more than 50 µM throughout. Further, the TGI in test [6], in test [7] and in test [8] was more than 50 µM in each case.

Take `c1ccc2[nH]c(-c3cc(-c4ccc5c(c4)OCO5)n[nH]3)nc2c1`: the GI50 is 2.74 µM in test [1]; 2.19 µM in test [9]; 4.47 µM in [3]; 4.57 µM in test [4]; 1.98 µM in test [5]; 4.08 µM in test [10]. For the same compound, the GI50 was 2.71 µM in test [6] and 10.9 µM in [8]. Also, the TGI in test [1] stood at 17.7 µM; in [9], 16.7 µM; in test [3], 19.3 µM; in test [4], 17.7 µM; in test [5], 10.3 µM; in test [10] it was 27.1 µM. For the same compound, the TGI amounted to 14.1 µM in [6] and 23.8 µM in [8].

In the case of `O=C(O)c1nc(-c2ccc(Cl)c(Cl)c2)nc2ccc(Cl)cc12`, the TGI in [1], in test [2], in test [3], in [4], in test [6] and in [7] was more than 100 µM each time. In test [8], this compound showed a TGI of more than 100 µM.
